Results as given in US8580829B2 (Boehringer Ingelheim International GmbH, priority 2010, dated 2013).

Legend:
[1] = target: T1, recombinant human FLAP protein (Homo sapiens, UniProt P20292); experiment: FLAP binding assay (Scintillation Proximity Assay, displacement of [125I]L-691,831); settings: recombinant human FLAP membranes, [125I]L-691,831 probe; read-out: FLAP SPA IC50
T1 construct: made in house; host or cells: Sf9 insect cells (100,000 x g membrane fraction)
T1 sequence (P20292 1-161): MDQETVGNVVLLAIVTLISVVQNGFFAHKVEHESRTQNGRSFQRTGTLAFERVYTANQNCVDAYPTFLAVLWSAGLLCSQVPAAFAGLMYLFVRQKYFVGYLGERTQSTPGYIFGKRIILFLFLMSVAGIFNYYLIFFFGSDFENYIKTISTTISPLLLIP
Protocol: Cell pellets produced from sf9 insect cells expressing recombinant human FLAP protein are resuspended in buffer A [15 mM Tris-HCl (pH 7.5), 2 mM MgCl2, 0.3 mM EDTA, 1 mM PMSF]. The cells are lysed with a Dounce homogenizer and the material is centrifuged at 10,000×g for 10 minutes. The supernatant is then collected and centrifuged at 100,000×g for 60 minutes. To prepare membrane protein for an assay, an aliquot of the 100,000×g pellet is resuspended in 1 ml of buffer A, Dounce homogenized, and finally subjected to polytron mixing (30 seconds). Membrane protein (25 μl, 5 μg) is mixed with WGA SPA beads (Amersham) and stirred for 1 h.

[2] = system: synthesis of LTB4 in human whole blood; experiment: human whole blood LTB4 production inhibition assay; assay type: cell-based; settings: Homo sapiens, heparinized human whole blood, calcimycin 20 μM; read-out: hWB LTB4 IC50
Protocol: Compounds are additionally tested in a human whole blood assay to determine their ability to inhibit the synthesis of LTB4 in a cellular system. Compounds are combined with heparinized human whole blood and incubated for 15 minutes at 37° C. Calcimycin (20 μM final, prepared in phosphate-buffered saline, pH 7.4) is then added and the mixture is incubated for another 30 minutes at 37° C. The samples are centrifuged for 5 min at low speed (1500×g) and the plasma layer is removed. Plasma LTB4 concentrations are then measured using an antibody-based homogenous time-resolved fluorescence method (CisBio, Bedford, Mass.).

IC50 [1]	IC50 [2]	SMILES
21 nM	1700 nM	CNC(=O)Cn1cccc(-c2nc(C3(c4ccc(-c5cnc(N)nc5)cc4)CCC3)no2)c1=O [Example 118, 2-[3-(3-{1-[4-(2-amino-pyrimidin-5-yl)-phenyl]-cyclobutyl}-1,2,4-oxadiazol-5-yl)-2-oxo-2H-pyridin-1-yl]-N-methyl-acetamide]
3.5 nM	190 nM	Nc1ncc(-c2ccc(C3(c4noc(-c5ccc(C(=O)N6CCC(F)(F)C6)nc5)n4)CCC3)cc2)cn1 [Example 75, [5-(3-{1-[4-(2-Amino-pyrimidin-5-yl)-phenyl]-cyclobutyl}-1,2,4-oxadiazol-5-yl)-pyridin-2-yl]-(3,3-difluoro-pyrrolidin-1-yl)-methanone]
8.4 nM	990 nM	Nc1ncc(-c2ccc(C3(c4noc(-c5ccnc(Cl)c5)n4)CCC3)cc2)cn1 [Example 56, 5-(4-{1-[5-(2-Chloro-pyridin-4-yl)-1,2,4-oxadiazol-3-yl]-cyclobutyl}-phenyl)-pyrimidin-2-ylamine]
2.5 nM	270 nM	Nc1ncc(-c2ccc(C3(c4noc(-c5c[nH]cn5)n4)CCC3)cc2)cn1 [Example 153, 5-(4-{1-[5-(1H-Imidazol-4-yl)-1,2,4-oxadiazol-3-yl]-cyclobutyl}-phenyl)-pyrimidin-2-ylamine]
8.5 nM	200 nM	CC(C)N1CCN(C(=O)Cn2cc(-c3nc(C4(c5ccc(-c6cnc(N)nc6)cc5)CCC4)no3)cn2)CC1 [Example 243, 2-[4-(3-{1-[4-(2-Amino-pyrimidin-5-yl)-phenyl]-cyclobutyl}-[1,2,4]oxadiazol-5-yl)-pyrazol-1-yl]-1-(4-isopropyl-piperazin-1-yl)-ethanone]
3.9 nM	79 nM	Cn1cc(-c2nc(C3(c4ccc(-c5cnc6[nH]ccc6c5)cc4)CCC3)no2)cn1 [Example 273, 5-(4-{1-[5-(1-Methyl-1H-pyrazol-4-yl)-[1,2,4]oxadiazol-3-yl]-cyclobutyl}-phenyl)-1H-pyrrolo[2,3-b]pyridine]
6.4 nM	130 nM	CNC(=O)Cn1cc(-c2nc(C3(c4ccc(-c5cnc(N)nc5)cc4)CCC3)no2)cn1 [Example 81, 2-[4-(3-{1-[4-(2-Amino-pyrimidin-5-yl)-phenyl]-cyclobutyl}-1,2,4-oxadiazol-5-yl)-pyrazol-1-yl]-N-methyl-acetamide]
5.1 nM	130 nM	Nc1ncc(-c2ccc(C3(c4noc(-c5ccc(C(=O)N6CCC(F)(F)CC6)nc5)n4)CCC3)cc2)cn1 [Example 59, [5-(3-{1-[4-(2-amino-pyrimidin-5-yl)-phenyl]-cyclobutyl}-1,2,4-oxadiazol-5-yl)-pyridin-2-yl]-(4,4-difluoro-piperidin-1-yl)-methanone]
3.8 nM	79 nM	Cn1cc(-c2nc(C3(c4ccc(-c5cnc6c(c5)CCN6)cc4)CCC3)no2)cn1 [Example 272, 5-(4-{1-[5-(1-Methyl-1H-pyrazol-4-yl)-[1,2,4]oxadiazol-3-yl]-cyclobutyl}-phenyl)-2,3-dihydro-1H-pyrrolo[2,3-b]pyridine]
4 nM	160 nM	CC(C)(CO)n1cc(-c2nc(C3(c4ccc(-c5cnc(N)nc5)cc4)CCC3)no2)cn1 [Example 84, 2-[4-(3-{1-[4-(2-Amino-pyrimidin-5-yl)-phenyl]-cyclobutyl}-1,2,4-oxadiazol-5-yl)-pyrazol-1-yl]-2-methyl-propan-1-ol]
2.7 nM	130 nM	CCOC(=O)CCN1CCN(c2ccc(-c3nc(C4(c5ccc(-c6cnc(N)nc6)cc5)CCC4)no3)cn2)CC1 [Example 106, 3-{4-[5-(3-{1-[4-(2-Amino-pyrimidin-5-yl)-phenyl]-cyclobutyl}-1,2,4-oxadiazol-5-yl)-pyridin-2-yl]-piperazin-1-yl}-propionic acid ethyl ester]
0.7 nM	16 nM	Cn1cc(-c2nc(C3(c4ccc(-c5cnc(N)cn5)cc4)CCC3)no2)cn1 [Example 220, 5-(4-{1-[5-(1-Methyl-1H-pyrazol-4-yl)-[1,2,4]oxadiazol-3-yl]-cyclobutyl}-phenyl)-pyrazin-2-ylamine]
3.9 nM	140 nM	CN(C)C(=O)C(C)(C)Cn1cc(-c2nc(C3(c4ccc(-c5cnc(N)nc5)cc4)CCC3)no2)cn1 [Example 129, 3-[4-(3-{1-[4-(2-Amino-pyrimidin-5-yl)-phenyl]-cyclobutyl}-1,2,4-oxadiazol-5-yl)-pyrazol-1-yl]-2,2,N,N-tetramethyl-propionamide]
2 nM	> 5000 nM	Cc1cc(C)c(-c2nc(C3(c4ccc(-c5cnc(N)nc5)cc4)CCC3)no2)c(=O)[nH]1 [Example 58, 3-(3-{1-[4-(2-Amino-pyrimidin-5-yl)-phenyl]-cyclobutyl}-1,2,4-oxadiazol-5-yl)-4,6-dimethyl-1H-pyridin-2-one]
17 nM	1400 nM	CN1CCCCC1c1nc(C2(c3ccc(-c4cnc(N)nc4)cc3)CCC2)no1 (centres unmarked) [Example 280, 5-(4-{1-[5-(1-Methyl-piperidin-2-yl)-[1,2,4]oxadiazol-3-yl]-cyclobutyl}-phenyl)-pyrimidin-2-ylamine]
15 nM	1200 nM	CC(C)(C)c1ccc(-c2nc(C3(c4ccc(-c5cnc(N)nc5)cc4)CCC3)no2)cc1 [Example 54, 5-(4-{1-[5-(4-tert-Butyl-phenyl)-1,2,4-oxadiazol-3-yl]-cyclobutyl}-phenyl)-pyrimidin-2-ylamine]
3.3 nM	> 5000 nM	Nc1ncc(-c2ccc(C3(c4noc(-c5c[nH]c(=O)cn5)n4)CCC3)cc2)cn1 [Example 16, 5-(3-{1-[4-(2-Amino-pyrimidin-5-yl)-phenyl]-cyclobutyl}-1,2,4-oxadiazol-5-yl)-1H-pyrazin-2-one]
4 nM	450 nM	Cc1nocc1-c1nc(C2(c3ccc(-c4cnc(N)nc4)cc3)CCC2)no1 [Example 163, 5-(4-{1-[5-(3-Methyl-isoxazol-4-yl)-1,2,4-oxadiazol-3-yl]-cyclobutyl}-phenyl)-pyrimidin-2-ylamine]
14 nM	360 nM	Cn1cc(-c2nc(C3(c4ccc(-c5cnc(N)nc5)cc4)CC(F)(F)C3)no2)cn1 [Example 122, 5-(4-{3,3-Difluoro-1-[5-(1-methyl-1H-pyrazol-4-yl)-1,2,4-oxadiazol-3-yl]-cyclobutyl}-phenyl)-pyrimidin-2-ylamine]
210 nM	> 5000 nM	Nc1ncc(-c2ccc(C3(c4noc(COCc5ccccc5)n4)CCOCC3)cc2)cn1 [Example 151, 5-{4-[4-(5-Benzyloxymethyl-1,2,4-oxadiazol-3-yl)-tetrahydro-pyran-4-yl]-phenyl}-pyrimidin-2-ylamine]
6.2 nM	580 nM	Cc1ccc(-c2nc(C3(c4ccc(-c5cnc(N)nc5)cc4)CCC3)no2)cc1Cl [Example 53, 5-(4-{1-[5-(3-Chloro-4-methyl-phenyl)-1,2,4-oxadiazol-3-yl]-cyclobutyl}-phenyl)-pyrimidin-2-ylamine]
4.3 nM	72 nM	CC(C(=O)N(C)C)n1cc(-c2nc(C3(c4ccc(-c5cnc(N)nc5)cc4)CCC3)no2)cn1 (centres unmarked) [Example 133, 2-[4-(3-{1-[4-(2-Amino-pyrimidin-5-yl)-phenyl]-cyclobutyl}-1,2,4-oxadiazol-5-yl)-pyrazol-1-yl]-N,N-dimethyl-propionamide]
